Laboratory results published in article PMC4200789, “Design, Synthesis and Biological Evaluation of Sulfamide and Triazole Benzodiazepines as Novel p53-MDM2 Inhibitors” (International Journal of Molecular Sciences, 2014).
Where two headings read alike, the source gives them in different places.

Legend:
NCI-H1299 (p53 null) = test: in vitro antitumor activity, MTT; format: cell-based; conditions: Homo sapiens, read-out: IC50 NCI-H1299 (p53 null)
Protocol: (§1) To investigate the in vitro antiproliferative activity of the designed p53-MDM2 inhibitors, four human tumor cell lines, namely U-2 OS (wild-type p53), A549 (wild-type p53), Saos-2 (p53 null), and NCI-H1299 (p53 null), were chosen for assaying.
(§2) The cellular growth inhibitory activity was determined using four human cancer cell lines [U-2 OS (wild-type p53), A549 (wild-type p53), Saos-2 (p53 null), and NCI-H1299 (p53 null)]. 5–6 × 10^4 cells per well were plated in 96-well plates. After culturing for 24 h, test compounds were added onto triplicate wells with different concentrations and 0.1% DMSO for control. After 72 h of incubation, 20 μL of MTT (3-[4,5-dimethylthiazol-2-yl]-2,5-diphenyltetrazoliumbromide) solution (5 mg/mL) was added to each well, and after the samples were shaken for 1min the plate was incubated further for 4 h at 37 °C. […] were dissolved with 100 μL of DMSO. The absorbance (OD) was quantitated with microplate using Biotek Synergy H2 at 570 nm (BioTek, Winooski, VT, USA). Wells containing no drugs were used as blanks.

Saos-2 (p53 null) = test: in vitro antitumor activity, MTT; format: cell-based; conditions: Homo sapiens, read-out: IC50 Saos-2 (p53 null)
Protocol: as §1, §2

A549 (wild-type p53) = test: in vitro antitumor activity, MTT; format: cell-based; conditions: Homo sapiens, read-out: IC50 A549 (wt-p53)
Protocol: as §1, §2

[1] = biological target: MDM2 binding domain (1–118) / PMDM6-F peptide (p53-MDM2) (Homo sapiens, UniProt Q00987); test: fluorescence polarization (FP) p53-MDM2 binding assay
Chain of MDM2 binding domain (1–118) / PMDM6-F peptide (p53-MDM2) (Q00987 1-118): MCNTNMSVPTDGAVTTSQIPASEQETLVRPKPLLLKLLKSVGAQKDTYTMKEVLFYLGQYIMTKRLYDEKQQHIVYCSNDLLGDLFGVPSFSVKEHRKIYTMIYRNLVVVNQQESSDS
Protocol: A well-established fluorescence polarization (FP) binding assay was performed to measure the inhibitory activity (Ki) of designed compounds. […] The two phenyl rings of (R)-7c were located in the Phe19 and Trp23 pockets respectively and the propargyl group was partly inserted into the Leu26 pocket.
The dose-dependent binding experiments were carried out with serial dilution in DMSO of compounds. […] The Ki values were determined from a plot using nonlinear least-squares analysis. And curve fitting was performed using GraphPad Prism software.

U-2 OS (wild-type p53) = test: in vitro antitumor activity, MTT; format: cell-based, human; conditions: for IC50: Homo sapiens, U2OS, 72 h, read-out: IC50 U-2 OS (wt-p53)
Protocol: as §1, §2

[2] = tested on: four human tumor cell lines (U-2 OS, A549, Saos-2, NCI-H1299); test: in vitro antitumor activity, MTT, four cell lines together; format: cell-based
Protocol: as §1, §2

[3] = design: method as in PMID 16630722, PMID 16600594, PMID 16290148; conditions: cited from earlier work
[4] = FP binding assay, MDM2 (1–118) 10 nM, PMDM6-F 10 nM, read-out: Ki

With `Clc1ccc(C2NC(c3ccccc3)c3cc(Cl)ccc3-n3cnnc32)cc1` (stereo not drawn) [Compound 17, 8-Chloro-4-(4-chlorophenyl)-6-phenyl-5,6-dihydro-4H-benzo[f][1,2,4]triazolo[4,3-a][1,4]diazepine] the IC50 (NCI-H1299 (p53 null); NCI-H1299, 72 h) was 34.6 µM, the IC50 (Saos-2 (p53 null); SAOS-2, 72 h) was 24.8 µM and the IC50 (A549 (wild-type p53); A549, 72 h) was 26.8 µM. For the same compound, the Ki [1] was 2.8 µM, the IC50 (U-2 OS (wild-type p53)) was 34 µM and the “in vitro antitumor activity (in words)” value [2] was “poor activity”.
In the case of `O=C1Nc2ccccc2S(=O)(=O)N(Cc2ccccc2)C1c1ccc(Cl)cc1` (stereo not drawn) [Compound 7g, 2-Benzyl-3-(4-chlorophenyl)-2,3-dihydrobenzo[f][1,2,5]thiadiazepin-4(5H)-one 1,1-dioxide], the IC50 (NCI-H1299 (p53 null); NCI-H1299, MTT, 72 h) is reported as greater than 100 µM, the IC50 (Saos-2 (p53 null); SAOS-2, MTT, 72 h) is reported as greater than 100 µM and the IC50 (A549 (wild-type p53); A549, MTT, 72 h) is reported as greater than 100 µM. For the same compound, the Ki [1, 4] was 8.14 µM and the IC50 (U-2 OS (wild-type p53); MTT) was greater than 100 µM.
With `O=C1Nc2ccccc2S(=O)(=O)N=C1c1ccc(Cl)cc1` [Compound 8, 3-(4-Chlorophenyl)benzo[f][1,2,5]thiadiazepin-4(5H)-one 1,1-dioxide] the IC50 (NCI-H1299 (p53 null); NCI-H1299, MTT, 72 h) was greater than 100 µM, the IC50 (Saos-2 (p53 null); SAOS-2, MTT, 72 h) was greater than 100 µM and the IC50 (A549 (wild-type p53); A549, MTT, 72 h) was greater than 100 µM. The “p53-MDM2 inhibitory activity (in words)” value ([1]; FP binding assay) was “dramatic decrease of the inhibitory activity”, the Ki [1, 4] was 11.9 µM and the IC50 (U-2 OS (wild-type p53); MTT) was greater than 100 µM.
For `C#CCN1C(c2ccc(Cl)cc2)C(=O)N(C=C=C)c2ccccc2S1(=O)=O` (stereo not drawn) [Compound 7b, 3-(4-Chlorophenyl)-2-(prop-2-yn-1-yl)-5-(propa-1,2-dien-1-yl)-2,3-dihydrobenzo[f][1,2,5]thiadiazepin-4(5H)-one 1,1-dioxide], the IC50 (NCI-H1299 (p53 null); NCI-H1299, MTT, 72 h) was greater than 100 µM, the IC50 (Saos-2 (p53 null); SAOS-2, MTT, 72 h) was greater than 100 µM and the IC50 (A549 (wild-type p53); A549, MTT, 72 h) was greater than 100 µM. It also gave a Ki [1, 4] of 0.36 µM and an IC50 (U-2 OS (wild-type p53); MTT) greater than 100 µM.
`C#CCN1C(c2ccc(Cl)cc2)C(=O)Nc2ccccc2S1(=O)=O` (stereo not drawn) [Compound 7c, 3-(4-Chlorophenyl)-2-(prop-2-yn-1-yl)-2,3-dihydrobenzo[f][1,2,5]thiadiazepin-4(5H)-one 1,1-dioxide] gave an IC50 (NCI-H1299 (p53 null); NCI-H1299, MTT, 72 h) greater than 100 µM, an IC50 (Saos-2 (p53 null); SAOS-2, MTT, 72 h) greater than 100 µM and an IC50 (A549 (wild-type p53); A549, MTT, 72 h) greater than 100 µM. The Ki [1, 4] was 0.26 µM and the IC50 (U-2 OS (wild-type p53); MTT) was greater than 100 µM.
With `N#CCN1C(c2ccc(Cl)cc2)C(=O)Nc2ccccc2S1(=O)=O` (stereo not drawn) [Compound 7d, 2-(3-(4-Chlorophenyl)-1,1-dioxido-4-oxo-4,5-dihydrobenzo[f][1,2,5]thiadiazepin-2(3H)-yl)acetonitrile] the IC50 (NCI-H1299 (p53 null); NCI-H1299, MTT, 72 h) was greater than 100 µM, the IC50 (Saos-2 (p53 null); SAOS-2, MTT, 72 h) was greater than 100 µM and the IC50 (A549 (wild-type p53); A549, MTT, 72 h) was 92.3 µM. It also gave a Ki [1, 4] greater than 100 µM and an IC50 (U-2 OS (wild-type p53); MTT) greater than 100 µM.
Work on `C#CCN1C(=O)C(c2ccc(Cl)cc2)N(CC#C)S(=O)(=O)c2ccccc21` (stereo not drawn) [Compound 7a, 3-(4-Chlorophenyl)-2,5-di(prop-2-yn-1-yl)-2,3-dihydrobenzo[f][1,2,5]thiadiazepin-4(5H)-one 1,1-dioxide] yielded an IC50 (NCI-H1299 (p53 null); NCI-H1299, MTT, 72 h) greater than 100 µM, an IC50 (Saos-2 (p53 null); SAOS-2, MTT, 72 h) greater than 100 µM and an IC50 (A549 (wild-type p53); A549, MTT, 72 h) greater than 100 µM. It also gave a Ki [1, 4] of 0.43 µM and an IC50 (U-2 OS (wild-type p53); MTT) greater than 100 µM.
Work on `O=C1Nc2ccc(Cl)cc2C(c2ccccc2)=NC1c1ccc(Cl)cc1` (stereo not drawn) [Compound 13, 7-Chloro-3-(4-chlorophenyl)-5-phenyl-1H-benzo[e][1,4]diazepin-2(3H)-one] yielded an IC50 (NCI-H1299 (p53 null); NCI-H1299, 72 h) of 6.11 µM, an IC50 (Saos-2 (p53 null); SAOS-2, 72 h) of 3.01 µM and an IC50 (A549 (wild-type p53); A549, 72 h) of 9.16 µM. For the same compound, the Ki [1] was 0.2 µM and the IC50 (U-2 OS (wild-type p53)) was 3.12 µM.
In the case of `S=C1Nc2ccc(Cl)cc2C(c2ccccc2)=NC1c1ccc(Cl)cc1` (stereo not drawn) [Compound 14, 7-Chloro-3-(4-chlorophenyl)-5-phenyl-1H-benzo[e][1,4]diazepine-2(3H)-thione], the IC50 (NCI-H1299 (p53 null); NCI-H1299, 72 h) is reported as 15.6 µM, the IC50 (Saos-2 (p53 null); SAOS-2, 72 h) is reported as 3.67 µM and the IC50 (A549 (wild-type p53); A549, 72 h) is reported as 24.1 µM. For the same compound, the Ki [1] was 8.76 µM and the IC50 (U-2 OS (wild-type p53)) was 5.31 µM.
`COc1ccc(C2=N[C@@H](c3ccc(Cl)cc3)[C@@H](c3ccc(Cl)cc3)N2C(=O)N2CCNC(=O)C2)c(OC(C)C)c1` [Nutlin-3, reference compound] showed an IC50 (U-2 OS (wild-type p53)) of 16.3 µM.
Work on `Clc1ccc(C2N=C(c3ccccc3)c3cc(Cl)ccc3-n3cnnc32)cc1` (stereo not drawn) [Compound 16, 8-Chloro-4-(4-chlorophenyl)-6-phenyl-4H-benzo[f][1,2,4]] yielded an IC50 (NCI-H1299 (p53 null); NCI-H1299, 72 h) of 5.5 µM, an IC50 (Saos-2 (p53 null); SAOS-2, 72 h) of 3.55 µM and an IC50 (A549 (wild-type p53); A549, 72 h) of 7.62 µM. The Ki [1] was 1.22 µM, the IC50 (U-2 OS (wild-type p53)) was 4.17 µM and the “antiproliferative activity against U-2 OS relative to nutlin-3” value (U-2 OS (wild-type p53); better than nutlin-3) was “about 4 fold”.
In the case of `O=C(O)[C@H](c1ccc(Cl)cc1)N1C(=O)c2cc(I)ccc2NC(=O)[C@@H]1c1ccc(Cl)cc1` [TDP222669], the bioavailability [3] is listed as “limited bioavailability” and the in vivo clearance [3] is listed as “rapid in vivo clearance”.
For `O=C1Nc2ccccc2S(=O)(=O)N(Cc2cccc(F)c2)C1c1ccc(Cl)cc1` (stereo not drawn) [Compound 7e, 3-(4-Chlorophenyl)-2-(3-fluorobenzyl)-2,3-dihydrobenzo[f][1,2,5]thiadiazepin-4(5H)-one 1,1-dioxide], the IC50 (NCI-H1299 (p53 null); NCI-H1299, MTT, 72 h) was greater than 100 µM, the IC50 (Saos-2 (p53 null); SAOS-2, MTT, 72 h) was greater than 100 µM and the IC50 (A549 (wild-type p53); A549, MTT, 72 h) was greater than 100 µM. The Ki [1, 4] was greater than 100 µM and the IC50 (U-2 OS (wild-type p53); MTT) was 90.5 µM.
With `O=C1Nc2ccccc2S(=O)(=O)N(Cc2c(F)cccc2F)C1c1ccc(Cl)cc1` (stereo not drawn) [Compound 7f, 3-(4-Chlorophenyl)-2-(2,6-difluorobenzyl)-2,3-dihydrobenzo[f][1,2,5]thiadiazepin-4(5H)-one 1,1-dioxide] the IC50 (NCI-H1299 (p53 null); NCI-H1299, MTT, 72 h) was greater than 100 µM, the IC50 (Saos-2 (p53 null); SAOS-2, MTT, 72 h) was greater than 100 µM and the IC50 (A549 (wild-type p53); A549, MTT, 72 h) was greater than 100 µM. It also gave a Ki [1, 4] of 78 µM and an IC50 (U-2 OS (wild-type p53); MTT) greater than 100 µM.
